ChEMBL document CHEMBL1250437, “Callyaerins A-F and H, new cytotoxic cyclic peptides from the Indonesian marine sponge Callyspongia aerizusa” (Bioorg Med Chem, 2010)

Legend:
[1] = system: Staphylococcus aureus; test: Antimicrobial activity against Staphylococcus aureus at 5 to 10 uL; assay type: functional
[2] = system: Escherichia coli; test: Antimicrobial activity against Escherichia coli at 5 to 10 uL; assay type: functional
[3] = system: Bacillus subtilis; test: Antimicrobial activity against Bacillus subtilis at 5 to 10 uL; assay type: functional
[4] = system: L5178Y; test: Cytotoxicity against mouse L5178Y cells; assay type: functional; details: read-out: ED50 (the source's name)
[5] = system: Candida albicans; test: Antimicrobial activity against Candida albicans at 5 to 10 uL; assay type: functional
[6] = Toxicity in brine shrimp assessed as mortality at 50 ug/ml; assay type: organism-based; details: artemia, in vivo; read-out: Activity
[7] = Toxicity in brine shrimp assessed as mortality at 20 ug/ml; assay type: organism-based; details: artemia, in vivo; read-out: Activity
[8] = system: PC-12; test: Cytotoxicity against rat PC12 cells; assay type: functional; details: read-out: ED50 (the source's name)
[9] = system: HeLa; test: Cytotoxicity against human HeLa cells; assay type: functional; details: read-out: ED50 (the source's name)

| SMILES | inhibition zone (IZ) [1] [mm] | inhibition zone (IZ) [2] [mm] | inhibition zone (IZ) [3] [mm] | EC50 [4] [µM] | inhibition zone (IZ) [5] [mm] | mortality at 50 ug/ml [6] [%] | mortality at 20 ug/ml [7] [%] | EC50 [8] [µM] | EC50 [9] [µM] |
| --- | --- | --- | --- | --- | --- | --- | --- | --- | --- |
| CC[C@@H](C)[C@@H]1NC(=O)[C@H](C(C)C)NC(=O)[C@@H]2C[C@@H](O)CN2C(=O)[C@H]([C@@H](C)CC)N/C=C(\C(=O)N2CCC[C@H]2C(=O)N[C@H](C(=O)N[C@@H](Cc2ccccc2)C(=O)NCC(N)=O)[C@@H](C)CC)NC(=O)[C@H](CC(C)C)NC(=O)[C@@H]2CCCN2C(=O)[C@@H]2CCCN2C(=O)[C@H](CC(C)C)NC1=O [CALLYAERIN A] | 9 | 10 | 0 | 3.61 | 25 |  |  |  |  |
| CC[C@@H](C)[C@@H]1NC(=O)[C@H]([C@@H](C)CC)NC(=O)[C@@H]2C[C@@H](O)CN2C(=O)[C@H]([C@H](C)CC)N/C=C(\C(=O)N2CCC[C@H]2C(=O)N[C@H](C(=O)N[C@H](C(=O)O)[C@@H](C)CC)[C@@H](C)CC)NC(=O)[C@H](CC(C)C)NC(=O)[C@@H]2CCCN2C(=O)[C@@H]2CCCN2C(=O)[C@H](CC(C)C)NC1=O [CALLYAERIN B] | 11 | 7 | 0 | 4.14 | 15 | 35 | 15 | > 8 | > 8 |
| CC[C@@H]1NC(=O)[C@@H]2C[C@@H](O)CN2C(=O)[C@@H]2CCCN2C(=O)[C@H](Cc2ccccc2)NC(=O)[C@H]([C@H](C)CC)NC(=O)[C@H]([C@H](C)CC)N/C=C(\C(=O)N2CCC[C@H]2C(=O)N[C@H](C(=O)N[C@@H](CC(N)=O)C(=O)N[C@@H](C)C(=O)N[C@H](C(=O)O)[C@@H](C)CC)[C@@H](C)CC)NC(=O)[C@H](CC(C)C)NC1=O [CALLYAERIN D] | 0 | 0 | 12 | 3.03 | 0 |  |  |  |  |
| CC[C@H](C)[C@H](NC(=O)[C@@H](NC(=O)[C@@H]1CCCN1C(=O)/C1=C/N[C@@H](CC(C)C)C(=O)N2CCC[C@H]2C(=O)N[C@@H](Cc2ccccc2)C(=O)N[C@@H](Cc2ccccc2)C(=O)N2CCC[C@H]2C(=O)N2CCC[C@H]2C(=O)N[C@@H](C(C)C)C(=O)N1)[C@@H](C)CC)C(=O)NCC(=O)O [CALLYAERIN E] | 9 | 9 | 15 | 0.39 | 20 | 70 | 45 | 3.8 | 3.4 |
| CC[C@H](C)[C@H](NC(=O)[C@H](Cc1ccccc1)NC(=O)[C@H](CC(C)C)NC(=O)[C@@H]1CCCN1C(=O)/C1=C\N[C@@H](C(C)C)C(=O)N2CCC[C@H]2C(=O)N[C@@H](C(C)C)C(=O)N[C@@H](Cc2ccccc2)C(=O)N2CCC[C@H]2C(=O)N1)C(=O)O [CALLYAERIN F] | 0 | 0 | 0 | > 9 | 0 |  |  | > 9 | > 9 |
| CC(C)C[C@@H]1NC(=O)[C@@H]2CCCN2C(=O)[C@H]2CCCN2C(=O)[C@@H]2CCCN2C(=O)[C@@H]2CCCN2C(=O)[C@H](CC(C)C)N/C=C(\C(=O)N2CCC[C@H]2C(=O)N[C@@H](Cc2ccccc2)C(=O)N[C@@H](Cc2ccccc2)C(=O)N[C@@H](Cc2ccccc2)C(=O)O)NC1=O [CALLYAERIN G] |  |  |  | 0.41 |  |  |  | > 8 | 4.43 |
| CC[C@H](C)[C@H](NC(=O)[C@@H]1CCCN1C(=O)/C1=C\N[C@@H](C(C)C)C(=O)N2CCC[C@H]2C(=O)N[C@@H](C(C)C)C(=O)N[C@@H](Cc2ccccc2)C(=O)N2CCC[C@H]2C(=O)N2CCC[C@H]2C(=O)N[C@@H](CC(C)C)C(=O)N1)C(=O)O [CALLYEARIN H] |  |  |  | 0.48 |  | 55 | 30 |  |  |
